The assay deals with human TMEM16A (TMEM16Aabc variant) (Homo sapiens, UniProt Q5XXA6, DEL476-501, form not given). The assay is described as follows: Automated whole-cell patch clamp (Qpatch) TMEM16A potentiator assay in FRT cells stably expressing human TMEM16A. As to conditions: for % Potentiation @ 3.33 μM Avg: 3.33 μM solution of test compound, percentage increase of baseline TMEM16A current; for pEC50: calculated EC50, Qpatch TMEM16A current at +70 mV. It is filed as cell-based. Summed up: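 FRT cells stably expressing human TMEM16Aabc were recorded by automated whole-cell patch clamp, with intracellular Ca2+ buffered for ~EC20 activation, holding −70 mV and step to +70 mV at 0.05 Hz. Compound was applied cumulatively, 5 min per concentration. Peak current increase as % of baseline was fitted to give EC50 and maximum efficacy.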
human TMEM16A (TMEM16Aabc variant), sequence (Q5XXA6 with tags, fused parts or gaps DEL476-501): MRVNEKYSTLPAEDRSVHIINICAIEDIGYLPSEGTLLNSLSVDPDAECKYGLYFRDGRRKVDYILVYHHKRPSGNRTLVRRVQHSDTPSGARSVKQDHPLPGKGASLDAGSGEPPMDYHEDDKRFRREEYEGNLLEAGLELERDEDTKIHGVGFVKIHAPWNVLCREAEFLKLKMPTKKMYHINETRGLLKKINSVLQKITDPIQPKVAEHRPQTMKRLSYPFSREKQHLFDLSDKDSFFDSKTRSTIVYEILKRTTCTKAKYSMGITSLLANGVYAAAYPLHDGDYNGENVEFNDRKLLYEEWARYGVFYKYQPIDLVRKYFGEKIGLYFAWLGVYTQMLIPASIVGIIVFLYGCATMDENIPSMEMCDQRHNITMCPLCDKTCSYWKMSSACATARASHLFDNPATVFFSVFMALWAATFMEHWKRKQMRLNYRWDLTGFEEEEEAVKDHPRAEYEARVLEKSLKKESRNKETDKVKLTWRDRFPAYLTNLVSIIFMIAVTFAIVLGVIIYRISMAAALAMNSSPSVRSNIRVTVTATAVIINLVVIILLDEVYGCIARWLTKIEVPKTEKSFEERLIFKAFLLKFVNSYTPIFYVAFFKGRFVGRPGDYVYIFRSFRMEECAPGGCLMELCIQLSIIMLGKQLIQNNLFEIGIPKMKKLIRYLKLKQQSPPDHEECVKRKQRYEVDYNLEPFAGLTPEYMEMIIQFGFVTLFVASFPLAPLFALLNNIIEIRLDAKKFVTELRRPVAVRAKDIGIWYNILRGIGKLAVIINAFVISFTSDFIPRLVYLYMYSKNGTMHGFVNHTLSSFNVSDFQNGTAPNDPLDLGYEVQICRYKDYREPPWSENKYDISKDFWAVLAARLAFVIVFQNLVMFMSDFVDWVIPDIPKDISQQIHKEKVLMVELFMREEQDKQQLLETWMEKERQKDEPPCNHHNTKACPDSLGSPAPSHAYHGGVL

pEC50: −log10 of the molar value.

For `CC(C)(C)NC(=O)c1cc(NC(=O)NCc2cccc(Cl)c2)ccn1` [Example 64.7, N-tert-Butyl-4-[(3-chlorophenyl)methylcarbamoylamino]pyridine-2-carboxamide], the “% Potentiation @ 3.33 μM Avg” value came out at 83%.
For `CC(C)(C)NC(=O)c1cc(NC(=O)NCc2ccc(Cl)cc2)ccn1` [Example 64.8, N-tert-butyl-4-[(4-chlorophenyl)methylcarbamoylamino]pyridine-2-carboxamide], the “% Potentiation @ 3.33 μM Avg” value worked out at 97%.
In the case of `CC(C)(C)NC(=O)c1cc(NC(=O)Nc2ccccc2O)ccn1` [Example 65, N-tert-Butyl-4-[(2-hydroxyphenyl)carbamoylamino]pyridine-2-carboxamide], the “% Potentiation @ 3.33 μM Avg” value is recorded as 55%.
A word on the pEC50: it is the EC50 on a negative log10 scale, so that one unit is a factor of ten. `COc1ccccc1CNC(=O)Nc1ccnc(C(=O)NC(C)(C)C)c1` [Example 65.1, N-tert-Butyl-4-[(2-methoxyphenyl)methylcarbamoylamino]pyridine-2-carboxamide]: the “% Potentiation @ 3.33 μM Avg” value turned out to be 75% and the pEC50 was 6.33.
For `CC(C)(C)NC(=O)c1cc(NC(=O)NCc2ccccc2O)ccn1` [Example 65.2, N-tert-Butyl-4-[(2-hydroxyphenyl)methylcarbamoylamino]pyridine-2-carboxamide], in that order: 73% and 6.32.
With `CC(C)(C)NC(=O)c1cc(NC(=O)NCc2cccc(O)c2)ccn1` [Example 65.3, N-tert-Butyl-4-[(3-hydroxyphenyl)methylcarbamoylamino]pyridine-2-carboxamide], the “% Potentiation @ 3.33 μM Avg” value came to 33%.
Same read-out and setting: for `CC(C)(C)NC(=O)c1cc(NC(=O)NCc2ccc(O)cc2)ccn1` [Example 65.4, N-tert-Butyl-4-[(4-hydroxyphenyl)methylcarbamoylamino]pyridine-2-carboxamide] the value was 10%; for `CC(O)c1ccc(O)c(CC(=O)Nc2ccnc(C(=O)NC(C)(C)C)c2)c1` (stereo not drawn) [Example 66, N-tert-Butyl-4-[[2-[2-hydroxy-5-(1-hydroxyethyl)phenyl]acetyl]amino]pyridine-2-carboxamide], 130%.
Consider `CC(NCC(F)(F)F)c1ccc(O)c(CC(=O)Nc2ccnc(C(=O)NC(C)(C)C)c2)c1` (stereo not drawn) [Example 67, N-tert-Butyl-4-[[2-[2-hydroxy-5-[1-(2,2,2-trifluoroethylamino)ethyl]phenyl]acetyl]amino]pyridine-2-carboxamide], for which the “% Potentiation @ 3.33 μM Avg” value is 158% and the pEC50 is 5.96.
Take `CC(C)(C)NC(=O)c1cc(NC(=O)Cc2cccc(CC#N)c2)ccn1` [Example 68, N-tert-Butyl-4-[[2-[3-(cyanomethyl)phenyl]acetyl]amino]pyridine-2-carboxamide]: the “% Potentiation @ 3.33 μM Avg” value was 39%.
Still for that read-out and setting: for `COCc1cccc(CC(=O)Nc2ccnc(C(=O)NC(C)(C)C)c2)c1` [Example 69, N-tert-Butyl-4-[[2-[3-(methoxymethyl)phenyl]acetyl]amino]pyridine-2-carboxamide] the value was 47%; for `CC(C)(C)NC(=O)c1cc(NC(=O)Cc2cc(CN3CCOCC3)ccc2O)ccn1` [Example 70, N-tert-Butyl-4-[[2-[2-hydroxy-5-(morpholinomethyl)phenyl]acetyl]amino]pyridine-2-carboxamide], 138%; for `N#CC1(NC(=O)c2cccc(NC(=O)Cc3cc(Cl)ccc3O)c2)CCOC1` (stereo not drawn) [Example 71, 3-[[2-(5-Chloro-2-hydroxy-phenyl)acetyl]amino]-N-(3-cyanotetrahydrofuran-3-yl)benzamide], 162%.
Take `CC1(NC(=O)c2cccc(NC(=O)Cc3cc(Cl)ccc3O)c2)CCCCC1` [Example 71.1, 3-[[2-(5-Chloro-2-hydroxy-phenyl)acetyl]amino]-N-(1-methylcyclohexyl)benzamide]: the “% Potentiation @ 3.33 μM Avg” value was determined as 256% and the pEC50 was 6.60.
As for `O=C(Cc1cc(F)ccc1O)Nc1ccnc(C(=O)NC2(CO)CCOC2)c1` (stereo not drawn) [Example 72, 4-[[2-(5-Fluoro-2-hydroxy-phenyl)acetyl]amino]-N-[3-(hydroxymethyl)tetrahydrofuran-3-yl]pyridine-2-carboxamide], the “% Potentiation @ 3.33 μM Avg” value was determined as 53%.
As to `COCC(C)(CO)NC(=O)c1cc(NC(=O)Cc2cc(Cl)ccc2O)ccn1` (stereo not drawn) [Example 73, 4-[[2-(5-Chloro-2-hydroxy-phenyl)acetyl]amino]-N-[1-(hydroxymethyl)-2-methoxy-1-methyl-ethyl]pyridine-2-carboxamide], the “% Potentiation @ 3.33 μM Avg” value was 196% and the pEC50 was 6.51.
For `CC#CC(C)(C)NC(=O)c1cc(NC(=O)Cc2cc(Cl)ccc2O)ccn1` [Example 73.1, 4-[[2-(5-Chloro-2-hydroxy-phenyl)acetyl]amino]-N-(1,1-dimethylbut-2-ynyl) pyridine-2-carboxamide] the same measures were 389% and 6.55.
For `C#CC(C)(C)NC(=O)c1cccc(NC(=O)Cc2cc(Cl)ccc2O)c1` [Example 74, 3-[[2-(5-Chloro-2-hydroxy-phenyl)acetyl]amino]-N-(1,1-dimethylprop-2-ynyl)benzamide] the same measures were 337% and 6.74.
As to `O=C(Cc1cc(Cl)ccc1O)Nc1cccc(C(=O)NC2(CO)CCOC2)c1` (stereo not drawn) [Example 74.1, 3-[[2-(5-Chloro-2-hydroxy-phenyl)acetyl]amino]-N-[3-(hydroxymethyl)tetra hydrofuran-3-yl]benzamide], the “% Potentiation @ 3.33 μM Avg” value is 49%.
The same measure, in the same setting: the value for `CC(C)(C)NC(=O)c1cc(NC(=O)Cc2cc(CCCO)ccc2O)ccn1` [Example 75, N-tert-Butyl-4-[[2-[2-hydroxy-5-(3-hydroxypropyl)phenyl]acetyl]amino]pyridine-2-carboxamide] was 34%.
Consider `CC1(NC(=O)c2cc(NC(=O)Cc3cc(Cl)c(F)cc3O)ccn2)CCC1` [Example 76, 4-[[2-(5-Chloro-4-fluoro-2-hydroxy-phenyl)acetyl]amino]-N-(1-methylcyclobutyl)pyridine-2-carboxamide], for which the “% Potentiation @ 3.33 μM Avg” value stood at 366% and the pEC50 is 6.66.
For `C#CC(C)(C)NC(=O)c1cc(NC(=O)Cc2cc(F)ccc2F)ccn1` [Example 77, 4-[[2-(2,5-Difluorophenyl)acetyl]amino]-N-(1,1-dimethylprop-2-ynyl)pyridine-2-carboxamide], the “% Potentiation @ 3.33 μM Avg” value is 139% and the pEC50 is 6.39.
For `O=C(Cc1cc(F)ccc1F)Nc1ccnc(C(=O)NC23CCC(F)(C2)C3)c1` [Example 77.1, 4-[[2-(2,5-Difluorophenyl)acetyl]amino]-N-(4-fluoro-1-bicyclo[2.1.1]hexanyl) pyridine-2-carboxamide], in that order: 151% and 6.27.
For `C#CC(C)(C)NC(=O)c1cc(NC(=O)Cc2ccc(Cl)cc2O)ccn1` [Example 78, 4-[[2-(4-Chloro-2-hydroxy-phenyl)acetyl]amino]-N-(1,1-dimethylprop-2-ynyl)pyridine-2-carboxamide] the same measures were 98% and 7.70.
For `C#CC(C)(C)NC(=O)c1cc(NC(=O)Cc2ccc(C(F)(F)F)cc2O)ccn1` [Example 78.1, N-(1,1-Dimethylprop-2-ynyl)-4-[[2-[2-hydroxy-4-(trifluoromethyl)phenyl]acetyl]amino]pyridine-2-carboxamide], in that order: 238% and 7.30.
Take `C#CC(C)(C)NC(=O)c1cc(NC(=O)Cc2cc(C(F)(F)F)ccc2O)ccn1` [Example 78.2, N-(1,1-Dimethylprop-2-ynyl)-4-[[2-[2-hydroxy-5-(trifluoromethyl)phenyl]acetyl]amino]pyridine-2-carboxamide]: the “% Potentiation @ 3.33 μM Avg” value came out at 86% and the pEC50 was 7.70.
On to `C#CC(C)(C)NC(=O)c1cc(NC(=O)CC2CCOc3ccccc32)ccn1` (stereo not drawn) [Example 79, 4-[(2-Chroman-4-ylacetyl)amino]-N-(1,1-dimethylprop-2-ynyl)pyridine-2-carboxamide], for which the “% Potentiation @ 3.33 μM Avg” value is 60%.
Same read-out and setting: for `C#CC(C)(C)NC(=O)c1cc(NC(=O)Cc2c(C)nn(C(C)C)c2C)ccn1` [Example 79.1, N-(1,1-Dimethylprop-2-ynyl)-4-[[2-(1-isopropyl-3,5-dimethyl-pyrazol-4-yl)acetyl]amino]pyridine-2-carboxamide] the value was 45%; for `C#CC(C)(C)NC(=O)c1cc(NC(=O)Cc2cccc3[nH]ncc23)ccn1` [Example 79.2, N-(1,1-Dimethylprop-2-ynyl)-4-[[2-(1H-indazol-4-yl)acetyl]amino]pyridine-2-carboxamide], 211%.
As to `C#CC(C)(C)NC(=O)c1cc(NC(=O)Cc2cccc3cc[nH]c23)ccn1` [Example 79.3, N-(1,1-Dimethylprop-2-ynyl)-4-[[2-(1H-indol-7-yl)acetyl]amino]pyridine-2-carboxamide], the “% Potentiation @ 3.33 μM Avg” value is 64% and the pEC50 was 6.62.
Take `N#CC1(NC(=O)c2cccc(NC(=O)Cc3cc(Cl)ccc3O)c2)CCOCC1` [Example 80, 3-[[2-(5-Chloro-2-hydroxy-phenyl)acetyl]amino]-N-(4-cyanotetrahydropyran-4-yl) benzamide]: the “% Potentiation @ 3.33 μM Avg” value stood at 130%.
As for `CC(C)(C#N)NC(=O)c1cc(NC(=O)Cc2cc(F)ccc2O)ccn1` [Example 81, N-(1-Cyano-1-methyl-ethyl)-4-[[2-(5-fluoro-2-hydroxy-phenyl)acetyl]amino] pyridine-2-carboxamide], the “% Potentiation @ 3.33 μM Avg” value came out at 151% and the pEC50 is 6.43.
For the compound `CC(C#N)(CO)NC(=O)c1cc(NC(=O)Cc2cc(F)ccc2O)ccn1` (stereo not drawn) [Example 81.1, N-(1-Cyano-2-hydroxy-1-methyl-ethyl)-4-[[2-(5-fluoro-2-hydroxy-phenyl)acetyl]amino] pyridine-2-carboxamide], the “% Potentiation @ 3.33 μM Avg” value is listed as 108%.

(Values after patent US20200361871A1 (Enterprise Therapeutics Ltd., priority 2018, published 2020).)
